Experimental data: patent US8383111B2, “Inotropic antibodies and therapeutic uses thereof” (priority 2002, dated 2013)
“Also recorded” adds a separate entry of the source. Like-named read-outs stand apart in the source and are kept apart here.

How the values were obtained:
(Na^++K^+)-ATPase [1] = assay: Immunofluorescent staining of antibody in rat cardiac myocytes and CV-1 cells; type: binding, rat; African green monkey; details: for competition with the Jianye-2 antibody binding site (Jianye-2 antibody staining in presence of competitor): 1 mM ouabain or strophanthidin
From the text: FIG. 1 (which includes FIGS. 1A through 1F) are photographs showing the immunofluorescent staining of Jianye-2 antibody in rat cardiac myocytes and African green monkey CV-1 cells, FIGS. 1A-1B are photographs of the confocal image of rat cardiac myocytes in the presence of Jianye-2 (FIG. 1A) or with both Jianye-2 antibody and peptide blocker (FIG. 1B). […] FIG. 1D is a photograph of a single CV-1 cell image at 3000× FIGS. 1E-1F are photographs showing Jianye-2 antibody staining in the presence of either 1 mM ouabain (FIG. 1E) or strophanthidin (FIG. 1F).
Confocal image of rat cardiac myocytes in the presence of Jianye-2, shown in FIG. 1A or with both Jianye-2 antibody and peptide blocker (FIG. 1B). […] Jianye-2 antibody staining in the presence of either 1 mM ouabain (FIG. 1E) or strophanthidin (FIG. 1F). […] Time runs from left to right. […] Columns B, C, D show the results obtained 10, 20, 30 min after administration of either buffer (upper panel) or Jianye-2 antibody (lower panel, 85 nM). Enzyme activity was monitored in cell homogenates under the same experimental condition. […] The data represent a mean of 12 independent experiments. […] The data represent a mean of four independent experiments.

heart failure rats = assay: Immunization with KX-1 peptide vaccine in heart failure rat model (echocardiography); type: in vivo; details: peptide injected as vaccine, TiterMax Gold adjuvant, vs control heart failure rat without immunization
Procedure: FIG. 9 is a graph showing the effect of immunization with KX-1 on the rat cardiac heart failure function. The peptide DVEDSYGQQWTYEQR (SEQ ID NO: 2) was injected into the animal as a vaccine to reduce the rate of progression of heart failure in the heart failure rat model. TiterMax Gold was used as an adjuvant throughout the experiment.
Echocardiography (Echo) uses sound waves to form a picture of the heart valves and heart muscle. The Echo machine sends sound waves to a transducer (a sound sensitive instrument) that is placed on the animal's chest. The sound waves are reflected by the heart was (muscle) and heart valves and back to the transducer, which changes the sound into a picture. Gel is applied on the rat chest and a transducer is placed over the heart area. Heart structures are examined by changing the direction of the transducer. The sound waves cause no discomfort. Thus, an Echo detects the changes and provides information about heart chamber size, wall motion, valve movements, and structural changes in and around the heart.

[2] = system: mouse heart left ventricle; assay: Measurement of mice cardiac contraction in vivo (pressure-volume catheter)
Procedure: Male wild-type mice (CD1, Charles River, 32-40 g) were utilized for this study. Mice In vivo cardiac functions were assessed by pressure-volume catheter in anesthetized mice. Briefly, mice were induced with 5% isofluorane, anesthetized with an intraperitoneal injection of urethane (300-500 mg/kg), etomidate (5 mg/kg) and morphine (0.5 mg kg-1), and intubated with a blunt 19 G needle inserted via tracheostomy. […] Ventilation was initiated with 100% oxygen using a custom-designed, constant flow ventilator delivering a tidal volume of […] at 120 breaths per min. The left external jugular vein was cannulated with a 30 G needle connected to an infusion pump. Modest volume expansion was provided (150 µL of 12.5% human albumin) at 50 µL/min. Following stabilization, a lateral incision was made at the xyphoid cartilage to expose the left ventricular (LV) apex. The 1.4F pressure-volume catheter (SPR-839, Millar Instruments Inc., Houston, Tex., USA) was inserted via an apical needle puncture with a 26 G needle, and advanced along the cardiac long axis. A 2F pacing catheter (NuMed, Nicholville, N.Y., USA) was placed in the esophagus, dorsal to the left atrium. Atrium was paced using 5-7 V, 2 ms pulses (SD25, Grass Instruments, Quincy, Mass., USA). Calibration of the volume signal was performed using a 5-10 µL bolus of 30% hypertonic saline injected into the jugular vein to determine the signal offset and ultrasound flow probe (AT01RB, Transonic Systems Inc.) placed around the thoracic aorta to determine signal gain. Data were digitized at 2 kHz and stored to disk for off line analysis.
Mice cardiac atria pacing were maintained at constant beating (600 beats/min). The hearts were infused with PBS (5 µl/min) for 10 min prior for administration of SSA78 infusion (5 µl/min) for 30 minutes and following by 10 min PBS washout at 5 µl/min. […] Steady-state indices were derived from 10 consecutive averaged beats. Cardiac preload was indexed as the left ventricular end-diastolic volume (EDV) and end-diastolic pressure (EDP). Cardiac afterload was evaluated as effective arterial elastance (Ea; ratio of LV systolic pressure to stroke volume). This parameter is not preload dependent and had been validated to closely approximate total afterload, which incorporates systemic vascular resistance, aortic impedance, and the reflected wave properties of the vasculature. Myocardial contractility was indexed by cardiac output (CO), dPdt max, dPdt max normalized to instantaneous developed pressure (dPdt max/IP), the load-independent end-systolic pressure-volume relationship (Ees) and preload recruitable stroke work (PRSW). Diastolic perform performance was measured by dPdt min and the time constant of ventricular relaxation.

(Na^++K^+)-ATPase [3] = target: T1, (Na^++K^+)-ATPase (Rattus norvegicus, UniProt P06685); assay: Determination of (Na^++K^+)-ATPase activity; type: biochemical; details: monitored in cell homogenates under the same experimental condition as contraction
T1 construct: Rat cardiac sarcolemmal (SL) vesicles were isolated from rat heart muscle by sucrose flotation method; from tissue; host or cells: rat heart muscle (sarcolemmal vesicles, SDS treatment and sucrose gradient)

rat cardiac myocytes = assay: Measurement of intracellular Ca2+ transients; type: cell-based; details: rat heart cells; mean of 12 independent experiments
Procedure: Rat cardiac myocytes were loaded with 50 µg of a cell permeable fluorescent Ca.2+ probe, Indo-1/acetoxymethyl-ester (Indo-1/AM, Molecular Probes, Inc., Eugene, Oreg.) for 10 min and then resuspended in HEPES-buffered solution in the presence of 1 mM Ca.2+ and stored in the dark at room temperature for 60 min before be utilized for the experiments. The Indo-1 loaded cells were placed on the stage of a modified inverted microscope (model IM-35; Carl Zeiss, Inc., Thornwood, N.Y.) equipped for simultaneous recording of Indo-1 fluorescence and cell length. Cells were electrically paced at 0.5 Hz at room temperature and the excitation wavelength was selected by a 350-nm interference filter (bandwidth 10 nm; Oriel Corp., Stratford, Conn.). The ratio of emission intensity at 410 nm to that at 490 nm was computed offline as an index of intracellular Ca.2+ (Cai^2+) transient. The peak amplitude of the transient is defined as the difference of the 410:490 fluorescence ratio before and after electrical stimulation with or without antibody.

rat ventricular myocytes = assay: Measurement of cell contraction in isolated rat ventricular myocytes; type: cell-based
Procedure: Ventricular cardiac myocytes were isolated from adult Sprague-Dawley rats (2-3 months old; weight 225-300 g) using standard enzymatic techniques. Briefly, following anesthesia (sodium pentobarbital, 100 mg/kg), the heart was quickly removed from the chest and aortic perfused at constant pressure (100 cmH2O) at 37° C. for 3 minutes with a Ca^2+-free bicarbonate-based buffer containing 120 mM NaCl, 5.4 mM MgSO4, 1.2 mM NaH2PO4, 5.6 mM glucose, 20 mM NaHCO3, and 5 mM taurine, in the presence of O2 (95%)-CO2 (5%). The enzymatic digestion was initiated by adding collagenase (Worthington Type II, 1 mg/ml) to the perfusion solution. Calcium (50 µM) was added to the enzyme solution when the heart became swollen. About 7 minutes later, the left ventricle was quickly removed, cut into several pieces, and further digested on a shaker (60-70 rpm) for 10 minutes in the same enzyme solution. The supernatant containing the dispersed myocytes was filtered into a test tube and gently centrifuged at 500 rpm for 1 minute. […]
Cardiac myocytes were isolated from wild-type adult Sprague-Dawley rats, using a standard enzymatic method described previously (Xu, K. Y., et al., (2002) BBRC, 289:167-172). […] Cell length was monitored from the bright-field image (650 nm to 750 nm red light illumination) by an optical edge-tracking method using a photodiode array (model 1024 SAQ, Reticon) with a 3-ms time resolution. […]

C[C@@H]1O[C@@H](O[C@H]2C[C@@H](O)[C@]3(CO)[C@H]4[C@H](O)C[C@]5(C)[C@@H](C6=CC(=O)OC6)CC[C@]5(O)[C@@H]4CC[C@]3(O)C2)[C@H](O)[C@H](O)[C@H]1O [ouabain, reference compound]
competition with the Jianye-2 antibody binding site (Jianye-2 antibody staining in presence of competitor) ((Na^++K^+)-ATPase [1]): compete with the Jianye-2 antibody binding site

C[C@]12CC[C@H]3[C@@H](CC[C@]4(O)C[C@@H](O)CC[C@]34C=O)[C@@]1(O)CC[C@@H]2C1=CC(=O)OC1 [strophanthidin, reference compound]
competition with the Jianye-2 antibody binding site (Jianye-2 antibody staining in presence of competitor) ((Na^++K^+)-ATPase [1]): compete with the Jianye-2 antibody binding site

DVEDSYGQQWTYEQR [peptide of the H7-H8 domain of (Na++K+)-ATPase alpha-subunit, injected as vaccine to generate endogenous KX-1 antibody]
rate of progression of heart failure (cardiac function) (heart failure rats): significantly decreased the progression of heart failure; also recorded: significantly delayed the rate of the progression of heart failure

Jianye-2 antibody: polyclonal rabbit IgG recognizing the RSATEEEPPNDD (SEQ ID NO: 1) peptide (H1-H2 domain) of the alpha-subunit of (Na++K+)-ATPase
first order rate constant of increase in mouse heart contraction [2]: 1.06 %/min | first order rate constant of increase in mouse heart contraction ([2]; 3.4 µM antibody): 1.06 %/min | mouse heart contraction, percent of background control (0 min as 100%) ([2]; 3.4 µM antibody, 5 min): 108(.+−.5.3) % | mouse heart contraction, percent of background control (0 min as 100%) ([2]; 3.4 µM antibody, 10 min): 113(.+−.7) % | mouse heart contraction, percent of background control (0 min as 100%) ([2]; 3.4 µM antibody, 15 min): 116(.+−.10) % | mouse heart contraction, percent of background control (0 min as 100%) ([2]; 3.4 µM antibody, 20 min): 122(.+−.9.0) % | first order rate constant of increase in mouse heart contraction ([2]; 6.0 µM antibody): 2.16 %/min | mouse heart contraction, percent of background control (0 min as 100%) ([2]; 6.0 µM antibody, 5 min): 115(.+−.9.0) % | mouse heart contraction, percent of background control (0 min as 100%) ([2]; 6.0 µM antibody, 10 min): 127(.+−.21) % | mouse heart contraction, percent of background control (0 min as 100%) ([2]; 6.0 µM antibody, 15 min): 137(.+−.16) % | mouse heart contraction, percent of background control (0 min as 100%) ([2]; 6.0 µM antibody, 20 min): 143(.+−.30) % | first order rate constant of increase in mouse heart contraction ([2]; 6.0 mM antibody): 2.16 %/min | mouse heart contraction, percent of background control (0 min as 100%) ([2]; 6.0 mM antibody, 5 min): 115(.+−.9.0) % | mouse heart contraction, percent of background control (0 min as 100%) ([2]; 6.0 mM antibody, 10 min): 127(.+−.21) % | mouse heart contraction, percent of background control (0 min as 100%) ([2]; 6.0 mM antibody, 15 min): 137(.+−.16) % | mouse heart contraction, percent of background control (0 min as 100%) ([2]; 6.0 mM antibody, 20 min): 143(.+−.30) % | mouse heart contraction, percent of background control (0 min as 100%) ([2]; 5 min): 108(.+−.5.3) % | mouse heart contraction, percent of background control (0 min as 100%) ([2]; 10 min): 113(.+−.7) % | mouse heart contraction, percent of background control (0 min as 100%) ([2]; 15 min): 116(.+−.10) % | mouse heart contraction, percent of background control (0 min as 100%) ([2]; 20 min): 122(.+−.9.0) % | positive inotropic effect (ventricular pressure-volume loops) ([2]; normal mouse heart left ventricle, 6.0 µM in PBS, pH 7.2, total 150 ml at 5 ml/min): dramatically induced a reversible positive inotropic effect | (Na++K+)-ATPase activity ((Na^++K^+)-ATPase [3]): without inhibiting | binding to the (Na++K+)-ATPase on the surface of the cell membrane (immunofluorescent staining) ((Na^++K^+)-ATPase [1]; rat cardiac myocytes and African green monkey CV-1 cells): specifically binds; also recorded: binds to its antigenic site | intracellular Ca2+ (rat cardiac myocytes): markedly increased | rat heart cell contraction (time course) (rat ventricular myocytes; 85 nM antibody, 10, 20, 30 min after administration, vs buffer): enhanced rat heart cell contraction | EC50 (rat ventricular myocytes; dose-dependent contractile response in rat ventricular myocytes, mean of four independent experiments, read-out: half maximal contractile response (EC50)): 35 nM
